Results published in US20260168007A1, “Methods and Devices for Detecting Mechanical Forces Using Cas Nuclease and Guide RNA Complexes” (Emory University, priority 2022, published 2026).

Columns and labels:
NIH/3T3 cells = assay: MCATS assay of integrin-mediated forces in NIH/3T3 cells, plate reader readout; type: cell-based; conditions: NIH/3T3 cells pretreated 30 min, 0-50 μM
Description: The values were normalized to the signal obtained from the 25,000 cells/well samples without drug treatment. All measurements were background subtracted using negative control wells lacking cells.
Considering that receptor mediated tension plays an important role in cell function, quantifying molecular forces of cell in a rapid fashion facilitates applications such as screening dose-response curves for drugs that modulate cell mechanics. Experiments were performed to determine whether MCATS can be used to produce a dose response curve for NIH-3T3 cell incubated with Rho kinase inhibitor, Y-27632, which targets the phosphorylation of myosin light chain and therefore dampens forces transmitted by focal adhesions. NIH/3T3 cells were pretreated with a range of Y-27632 concentrations (0-50 μM) for 30 min. MCATS was ran with the drug treated cell.
The wells were washed with 1×PBS.

human platelets = assay: MCATS assay of human platelet forces on Ttol=12 pN surface
Description: Each drug was incubated for 30 min prior to seeding. Mechano-IC50 was calculated by fitting a plot to a standard dose-response function: Signal=Bottom+(Top-Bottom)/(1+([drug]/IC50).
Platelet-rich plasma (PRP) is prepared by centrifugation and separation from whole blood. Then platelets rich plasma was separated and centrifuged a second time with apyrase and resuspended in Tyrode's solution, which is isotonic with interstitial fluid, contains magnesium, and uses bicarbonate and phosphate as a buffer. Apyrase is important in the platelets purification process to prevent hemolysis caused platelets aggregation. MCATS was tested as a function of the number of platelets seeded on the Ttol=12pN surface (FIG. 3A). […]
MCATS assay was performed on the prepared biotin surface as described in the surface preparation section. […] Surfaces with exposed activator were imaged directly with fluorescence microscopy for high resolution characterization and quantification. […] After 1 h of incubation, fluorescence intensities on 96 well plates were measured with a plate reader (Ex/Em=540/590 nm for reporter channel).
For platelet MCATS measurements, human platelets were purified and incubated at room temperature for at least 30 min before beginning experiments. […] The same MCATS protocols were followed to achieve amplification and quantification for platelets.

C[C@@H](N)[C@H]1CC[C@H](C(=O)Nc2ccncc2)CC1 [Y-27632]
MCATS signal as a function of drug concentration (NIH/3T3 cells): dose-dependent reduction

Nc1ncnc2c1ncn2[C@@H]1O[C@H](COP(=O)(O)OP(=O)(O)O)[C@@H](O)[C@H]1O [ADP]
MCATS tension signal, dose-response to agonist (human platelets): Increasing tension signal
